From patent US6461997B1, “Triazole sulfones having herbicidal activity” (Monsanto Technology LLC, priority 1999, dated 2002)

Tests used:
[1] = test system: SINAR (wild mustard); test: Pre-emergence herbicidal activity, cool season; type: in vivo, Sinapis arvensis; settings: lowest tested rate with 80% or greater inhibition; rates 300, 100, 30, 10 g/ha; about 14 days
Method in brief: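 Seeds sown in sterilised fertilised topsoil received surface-applied compound in 50:50 acetone/water, typically at 300, 100, 30 and 10 g/ha, then greenhouse-grown at 30/21° C (warm-season species) or 18/13° C (cool-season species). Percent inhibition versus untreated plants was scored at about 14 days, giving GR80; an asterisk marks activity short of 80% at the top rate.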

[2] = test system: ALOMY (blackgrass); test: Pre-emergence herbicidal activity, cool season; type: in vivo, Alopecurus myosuroides; settings: GR80 = lowest tested rate (300, 100, 30, 10 g/ha) with 80% or greater inhibition; approx. 14 days after treating; 18/13° C.
Method in brief: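 Read-out: GR80, derived from percent growth inhibition relative to untreated plants at roughly 14 days after planting and treatment. Compounds went onto the surface of freshly seeded soil at 10–300 g/ha. Day/night regimes were 30/21 °C for millet and crabgrass, 18/13 °C for blackgrass and buckwheat.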

[3] = test system: ABUTH (velvetleaf); test: Pre-plant incorporated (PPI) herbicidal activity, warm season; type: in vivo, Abutilon theophrasti; settings: for PPI activity (GR80) ABUTH: pre-plant incorporated, GR80 = lowest tested rate with 80% or greater inhibition, approx. 14 days after treating, 30/21° C.
Description: (§1) In another set of tests, the pre-plant incorporated (PPI) activity of compounds of this invention was evaluated on the same species as for the pre-emergence tests described above. In the PPI tests the following procedure, designed to simulate PPI application, was used.
(§2) A pre-prepared topsoil mixture (described above) was placed in a pot and compacted to a depth of 1.0 to 1.25 cm from the top of the pot. Seeds of each of several monocotyledonous and dicotyledonous annual plant species were placed on top of the soil. A sufficient quantity of soil to cover the seeds and level fill the pot was weighed into an open container. A known amount of the test compound was dissolved or suspended in an organic solvent and applied by spraying to this cover soil. The cover soil was thoroughly mixed to distribute the test compound throughout the cover soil, and was then applied as a cover layer over the seeds. Untreated soil was used as a cover layer for control pots. After treatment the plants were placed in a greenhouse where they received 0.64 cm of overhead irrigation. All subsequent watering consisted of a light overhead mist and/or subirrigation as needed for germination and growth. Tables 9 and 10 below relate to warm season plant species which were placed after pre-emergence treatment in a greenhouse with a 30/21° C. day/night temperature regime. Tables 11 and 12 below relates to cool season plant species placed after pre-emergence treatment in a greenhouse or growth chamber with an 18/13° C. day/night temperature regime. Only the compounds of Examples 1, 6, 8, 11, 13 and 15-20 were included in PPI tests.
(§3) Approximately 14 days after planting and treating, the plants were observed and herbicidal efficacy recorded as percent inhibition by comparison with untreated plants.

[4] = test system: SETFA (giant foxtail); test: as above; type: in vivo, Setaria faberi; settings: for PPI activity GR80, SETFA: pre-plant incorporated, lowest tested rate with 80% or greater inhibition, about 14 days
Description: as §1, §2, §3

[5] = test system: AEGCY (jointed goatgrass); test: Post-emergence herbicidal activity, cool season; type: in vivo, Aegilops cylindrica; settings: abraded plants sprayed at 300, 100, 30 and 10 g/ha; about 14 days after treatment
Method in brief: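 Abraded seedling foliage receives a spray of test compound at four rates, 300 to 10 g/ha, in 50:50 acetone/water at 3,100 l/ha. After about 14 days in an 18/13° C. day/night greenhouse, inhibition is scored against abraded untreated controls and expressed as GR80.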

[6] = test system: soybean (GLYMX); test: Selectivity test, PPI, warm season crop; type: in vivo, Glycine max; settings: PPI application
Description: as §2, §3
Additional pre-emergence and PPI tests were conducted by the procedures described above, on warm and cool season weed species in the presence of crop species, to assess herbicidal selectivity. Crop species included in warm season tests were corn (Zea mays, ZEAMX), rice (Oryza sativa, ORYSA) and soybean (Glycine max, GLYMX). Crop species included in cool season tests were wheat (Triticum aestivum, TRZAW), barley (Hordeunm vulgare, HORVX) and oilseed rape (Brassica napus, BRSNS).
Tables 15 and 16 relate to pre-emergence and PPI tests respectively on warm season species. Table 17 relates to pre-emergence tests on cool season species.

[7] = Abutilon theophrasti, PPI application, 30 g/ha, read-out: Percent inhibition ABUTH
[8] = Abutilon theophrasti, PPI application, 100 g/ha, read-out: Percent inhibition ABUTH
[9] = Abutilon theophrasti, PPI application, 300 g/ha, read-out: Percent inhibition ABUTH
[10] = Abutilon theophrasti, PPI application, 900 g/ha, read-out: Percent inhibition ABUTH
[11] = Setaria faberi, PPI application, 30 g/ha, read-out: Percent inhibition SETFA
[12] = Setaria faberi, PPI application, 100 g/ha, read-out: Percent inhibition SETFA
[13] = Setaria faberi, PPI application, 300 g/ha, read-out: Percent inhibition SETFA
[14] = Setaria faberi, PPI application, 900 g/ha, read-out: Percent inhibition SETFA
[15] = Glycine max, 30 g/ha, read-out: Percent inhibition GLYMX
[16] = Glycine max, 100 g/ha, read-out: Percent inhibition GLYMX
[17] = Glycine max, 300 g/ha, read-out: Percent inhibition GLYMX
[18] = Glycine max, 900 g/ha, read-out: Percent inhibition GLYMX

Row | SMILES | Pre-emergence activity GR80, SINAR [1] | Pre-emergence activity (GR80) ALOMY [2] [g/ha] | PPI activity (GR80) ABUTH [3] [g/ha] | PPI activity GR80, SETFA [4] [g/ha] | Post-emergence activity GR80, AEGCY [5] | Percent inhibition ABUTH ([3]; PPI application, 30 g/ha) [%] | Percent inhibition ABUTH ([3]; PPI application, 100 g/ha) [%] | Percent inhibition ABUTH ([3]; PPI application, 300 g/ha) [%] | Percent inhibition ABUTH ([3]; PPI application, 900 g/ha) [%] | Percent inhibition SETFA ([4]; PPI application, 30 g/ha) [%] | Percent inhibition SETFA ([4]; PPI application, 100 g/ha) [%] | Percent inhibition SETFA ([4]; PPI application, 300 g/ha) [%] | Percent inhibition SETFA ([4]; PPI application, 900 g/ha) [%] | Percent inhibition GLYMX ([6]; 30 g/ha) [%] | Percent inhibition GLYMX ([6]; 100 g/ha) [%] | Percent inhibition GLYMX ([6]; 300 g/ha) [%] | Percent inhibition GLYMX ([6]; 900 g/ha) [%] | Percent inhibition ABUTH ([3]; PPI application, 10 g/ha) [%] | Percent inhibition SETFA ([4]; PPI application, 10 g/ha) [%] | Percent inhibition GLYMX ([6]; 10 g/ha) [%] | further results
1 | CCN(CC)C(=O)n1cnc(S(=O)(=O)C(F)(F)Br)n1 [Example 1, 3-(bromodifluoromethylsulfonyl)-1-(N,N-diethylcarbamoyl)-1,2,4-triazole] | 100 g/ha | 300 | 100 | 30 | [empty] | – | – | – | – | – | – | – | – | – | – | – | – | – | – | – | inhibition at 10 g/ha ([3]; Abutilon theophrasti, PPI application, 10 g/ha, read-out: Percent inhibition ABUTH): 0%; inhibition at 30 g/ha [3, 7]: 0%; inhibition at 100 g/ha [3, 8]: 0%; inhibition at 300 g/ha [3, 9]: 20%; inhibition at 900 g/ha [3, 10]: 80%; inhibition at 10 g/ha ([4]; Setaria faberi, PPI application, 10 g/ha, read-out: Percent inhibition SETFA): 100%; inhibition at 30 g/ha [4, 11]: 70%; inhibition at 100 g/ha [4, 12]: 100%; inhibition at 300 g/ha [4, 13]: 100%; inhibition at 900 g/ha [4, 14]: 100%; inhibition at 10 g/ha ([6]; Glycine max, 10 g/ha, read-out: Percent inhibition GLYMX): 0%; inhibition at 30 g/ha [6, 15]: 0%; inhibition at 100 g/ha [6, 16]: 0%; inhibition at 300 g/ha [6, 17]: 0%; inhibition at 900 g/ha [6, 18]: 40%
2 | CCSC(F)(F)S(=O)(=O)c1ncn(C(=O)N(CC)CC)n1 [Example 8, 1-(N,N-diethylcarbamoyl)-3-[difluoro(ethylthio)methylsulfonyl]-1,2,4-triazole] | [empty] | 100 | 300 | 30 | [empty] | – | – | – | – | – | – | – | – | – | – | – | – | – | – | – | inhibition at 30 g/ha [3, 7]: 0%; inhibition at 100 g/ha [3, 8]: 10%; inhibition at 300 g/ha [3, 9]: 20%; inhibition at 900 g/ha [3, 10]: 100%; inhibition at 30 g/ha [4, 11]: 90%; inhibition at 100 g/ha [4, 12]: 100%; inhibition at 300 g/ha [4, 13]: 100%; inhibition at 900 g/ha [4, 14]: 100%; inhibition at 30 g/ha [6, 15]: 0%; inhibition at 100 g/ha [6, 16]: 10%; inhibition at 300 g/ha [6, 17]: 40%; inhibition at 900 g/ha [6, 18]: 65%
3 | CCN(CC)C(=O)n1cnc(S(=O)(=O)C(F)(F)SC)n1 [Example 9] | 300 g/ha | 300 | – | – | [empty] | 0 | 0 | 60 | 90 | 95 | 100 | 100 | 100 | 0 | 10 | 20 | 40 | – | – | – | –
4 | CCN(CC)C(=O)n1cnc(S(=O)(=O)C(F)(F)SCc2ccccc2)n1 [Example 10] | 100 g/ha | 300 | – | – | [empty] | 0 | 0 | 30 | 50 | 60 | 80 | 100 | 100 | 0 | 0 | 10 | 70 | 0 | 0 | 0 | –
5 | CCN(CC)C(=O)n1cnc(S(=O)(=O)C(F)(F)SCC(=O)OC)n1 [Example 11] | 100 g/ha | 300 | 300 | 300 | [empty] | 0 | 0 | 20 | 20 | 0 | 90 | 60 | 100 | 0 | 0 | 10 | 30 | 0 | 0 | 0 | –
6 | CCN(CC)C(=O)n1cnc(S(=O)(=O)C(F)(F)SCCOC)n1 [Example 13] | [empty] | 300 | 100 | 30 | [empty] | 0 | 0 | 20 | 85 | 99 | 90 | 100 | 100 | 0 | 0 | 30 | 70 | 0 | 0 | 0 | –
